Measured values from PubChem BioAssay (NCI).
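Interpolation was linear, between the two tested concentrations surrounding the appropriate level; five concentrations were tested over 48 hours in 96-well plates. Definition used: TGI = concentration required for complete inhibition of growth.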

How the values were obtained:
Assay in all cases: NCI tumour cell line growth inhibition, 48 h
HL-60(TB) leukemia = system: HL-60(TB) leukemia
ACHN renal = system: ACHN renal
XF 498 CNS = system: XF 498 CNS
SF-268 CNS = system: SF-268 CNS
SR leukemia = system: SR leukemia
UO-31 renal = system: UO-31 renal
OVCAR-3 ovarian = system: OVCAR-3 ovarian
TK-10 renal = system: TK-10 renal
SNB-78 CNS = system: SNB-78 CNS
786-0 renal = system: 786-0 renal
OVCAR-4 ovarian = system: OVCAR-4 ovarian
MOLT-4 leukemia = system: MOLT-4 leukemia
SNB-75 CNS = system: SNB-75 CNS
UACC-257 melanoma = system: UACC-257 melanoma
U251 CNS = system: U251 CNS
M14 melanoma = system: M14 melanoma
SF-295 CNS = system: SF-295 CNS
KM20L2 colon = system: KM20L2 colon
KM12 colon = system: KM12 colon
NCI-H460 lung = system: NCI-H460 lung
SK-MEL-28 melanoma = system: SK-MEL-28 melanoma
NCI-H23 lung = system: NCI-H23 lung
A549 NSCLC = system: A549 NSCLC
HOP-92 NSCLC = system: HOP-92 NSCLC
SNB-19 CNS = system: SNB-19 CNS
LOX IMVI melanoma = system: LOX IMVI melanoma
HOP-62 NSCLC = system: HOP-62 NSCLC
OVCAR-8 ovarian = system: OVCAR-8 ovarian
RXF 393 renal = system: RXF 393 renal
EKVX NSCLC = system: EKVX NSCLC
OVCAR-5 ovarian = system: OVCAR-5 ovarian
SW-620 colon = system: SW-620 colon
HCT-15 colon = system: HCT-15 colon
DMS 114 small cell lung = system: DMS 114 small cell lung
COLO 205 colon = system: COLO 205 colon
SN12C renal = system: SN12C renal
SF-539 CNS = system: SF-539 CNS
K-562 leukemia = system: K-562 leukemia
SK-MEL-2 melanoma = system: SK-MEL-2 melanoma
MALME-3M melanoma = system: MALME-3M melanoma
HOP-18 NSCLC = system: HOP-18 NSCLC
SK-OV-3 ovarian = system: SK-OV-3 ovarian
UACC-62 melanoma = system: UACC-62 melanoma
DMS 273 small cell lung = system: DMS 273 small cell lung
NCI-H522 lung = system: NCI-H522 lung
M19-MEL melanoma = system: M19-MEL melanoma
CAKI-1 renal = system: CAKI-1 renal
IGROV1 ovarian = system: IGROV1 ovarian
NCI-H226 lung = system: NCI-H226 lung
DLD-1 colon = system: DLD-1 colon
A498 renal = system: A498 renal
HCC-2998 colon = system: HCC-2998 colon
LXFL 529 NSCLC = system: LXFL 529 NSCLC
CCRF-CEM leukemia = system: CCRF-CEM leukemia
HCT-116 colon = system: HCT-116 colon
SK-MEL-5 melanoma = system: SK-MEL-5 melanoma
HT29 colon = system: HT29 colon
RPMI-8226 leukemia = system: RPMI-8226 leukemia
RXF-631 renal = system: RXF-631 renal

In the case of `CN(C)CCN(C)CCC(=O)/C=C/c1ccccc1`, the TGI (HL-60(TB) leukemia) is reported as 53.5 µM, the TGI (ACHN renal) is reported as greater than 69.9 µM and the TGI (XF 498 CNS) is reported as 49.6 µM. The TGI (SF-268 CNS) was greater than 94.5 µM, the TGI (SR leukemia) was 27.3 µM and the TGI (UO-31 renal) was greater than 100 µM. For the same compound, the TGI (OVCAR-3 ovarian) was greater than 61.4 µM, the TGI (TK-10 renal) was greater than 63.9 µM and the TGI (SNB-78 CNS) was greater than 77.6 µM. For the same compound, the TGI (786-0 renal) was 29.9 µM, the TGI (OVCAR-4 ovarian) was greater than 61.2 µM and the TGI (MOLT-4 leukemia) was 27.2 µM. It also gave a TGI (SNB-75 CNS) greater than 60.8 µM, a TGI (UACC-257 melanoma) of 51.4 µM and a TGI (U251 CNS) greater than 100 µM. The TGI (M14 melanoma) was 40.6 µM, the TGI (SF-295 CNS) was greater than 58.4 µM and the TGI (KM20L2 colon) was greater than 100 µM. It also gave a TGI (KM12 colon) of 52.5 µM, a TGI (NCI-H460 lung) greater than 100 µM and a TGI (SK-MEL-28 melanoma) of 43.6 µM. It also gave a TGI (NCI-H23 lung) greater than 61.1 µM, a TGI (A549 NSCLC) greater than 100 µM and a TGI (HOP-92 NSCLC) of 56.9 µM. The TGI (SNB-19 CNS) was greater than 100 µM, the TGI (LOX IMVI melanoma) was greater than 100 µM and the TGI (HOP-62 NSCLC) was greater than 100 µM. The TGI (OVCAR-8 ovarian) was 47.1 µM, the TGI (RXF 393 renal) was 45.3 µM and the TGI (EKVX NSCLC) was greater than 93.8 µM. For the same compound, the TGI (OVCAR-5 ovarian) was greater than 100 µM, the TGI (SW-620 colon) was 37.7 µM and the TGI (HCT-15 colon) was 50.1 µM. The TGI (DMS 114 small cell lung) was greater than 66.3 µM, the TGI (COLO 205 colon) was 36 µM and the TGI (SN12C renal) was 48.5 µM. It also gave a TGI (SF-539 CNS) of 39.6 µM, a TGI (K-562 leukemia) greater than 52.8 µM and a TGI (SK-MEL-2 melanoma) greater than 74.6 µM. For the same compound, the TGI (MALME-3M melanoma) was 35.6 µM, the TGI (HOP-18 NSCLC) was greater than 100 µM and the TGI (SK-OV-3 ovarian) was greater than 100 µM. It also gave a TGI (UACC-62 melanoma) of 71.4 µM, a TGI (DMS 273 small cell lung) of 34 µM and a TGI (NCI-H522 lung) of 9.64 µM. For the same compound, the TGI (M19-MEL melanoma) was 40.9 µM, the TGI (CAKI-1 renal) was 49.9 µM and the TGI (IGROV1 ovarian) was greater than 68.2 µM. For the same compound, the TGI (NCI-H226 lung) was greater than 88.7 µM, the TGI (DLD-1 colon) was 39.9 µM and the TGI (A498 renal) was greater than 100 µM. It also gave a TGI (HCC-2998 colon) greater than 69.6 µM, a TGI (LXFL 529 NSCLC) of 32.6 µM and a TGI (CCRF-CEM leukemia) of 23 µM. The TGI (HCT-116 colon) was 31.4 µM, the TGI (SK-MEL-5 melanoma) was greater than 62.1 µM and the TGI (HT29 colon) was 41.2 µM. It also gave a TGI (RPMI-8226 leukemia) of 6.54 µM.
Compound `COc1ccc(NC(=O)CC(=O)n2nc(-c3ccccc3)c(N=Nc3ccccc3C(=O)O)c2-c2ccccc2)cc1` has a TGI (ACHN renal) greater than 100 µM, a TGI (SF-268 CNS) greater than 100 µM and a TGI (SR leukemia) greater than 100 µM. It also gave a TGI (UO-31 renal) greater than 100 µM, a TGI (OVCAR-3 ovarian) greater than 100 µM and a TGI (TK-10 renal) greater than 100 µM. The TGI (786-0 renal) was 70.8 µM, the TGI (RXF-631 renal) was greater than 100 µM and the TGI (OVCAR-4 ovarian) was greater than 100 µM. The TGI (MOLT-4 leukemia) was greater than 100 µM, the TGI (U251 CNS) was greater than 100 µM and the TGI (SF-295 CNS) was greater than 100 µM. The TGI (KM20L2 colon) was greater than 100 µM, the TGI (KM12 colon) was greater than 100 µM and the TGI (SK-MEL-28 melanoma) was greater than 100 µM. The TGI (NCI-H23 lung) was greater than 100 µM, the TGI (A549 NSCLC) was greater than 100 µM and the TGI (HOP-92 NSCLC) was 41.4 µM. It also gave a TGI (SNB-19 CNS) greater than 100 µM, a TGI (LOX IMVI melanoma) greater than 100 µM and a TGI (HOP-62 NSCLC) greater than 100 µM. The TGI (OVCAR-8 ovarian) was 78.9 µM, the TGI (RXF 393 renal) was 90.7 µM and the TGI (EKVX NSCLC) was greater than 100 µM. It also gave a TGI (OVCAR-5 ovarian) greater than 100 µM, a TGI (SW-620 colon) greater than 100 µM and a TGI (HCT-15 colon) greater than 100 µM. It also gave a TGI (DMS 114 small cell lung) greater than 100 µM, a TGI (COLO 205 colon) greater than 100 µM and a TGI (SN12C renal) greater than 100 µM. For the same compound, the TGI (SF-539 CNS) was greater than 100 µM, the TGI (K-562 leukemia) was greater than 100 µM and the TGI (SK-MEL-2 melanoma) was greater than 100 µM. It also gave a TGI (SK-OV-3 ovarian) of 31.8 µM, a TGI (UACC-62 melanoma) greater than 100 µM and a TGI (DMS 273 small cell lung) greater than 100 µM. The TGI (NCI-H522 lung) was greater than 100 µM, the TGI (M19-MEL melanoma) was greater than 100 µM and the TGI (CAKI-1 renal) was greater than 100 µM. It also gave a TGI (IGROV1 ovarian) greater than 100 µM, a TGI (NCI-H226 lung) greater than 100 µM and a TGI (DLD-1 colon) greater than 100 µM. For the same compound, the TGI (HCC-2998 colon) was greater than 100 µM, the TGI (LXFL 529 NSCLC) was greater than 100 µM and the TGI (CCRF-CEM leukemia) was greater than 100 µM. For the same compound, the TGI (HCT-116 colon) was greater than 100 µM, the TGI (SK-MEL-5 melanoma) was greater than 100 µM and the TGI (RPMI-8226 leukemia) was greater than 100 µM.
Work on `CC1(C)CCCC2(C)[C@@H]1CC[C@@]13CC(=O)[C@@](C)(CC[C@@H]21)C3` (stereo not given in full) yielded a TGI (HL-60(TB) leukemia) greater than 100 µM, a TGI (ACHN renal) greater than 100 µM and a TGI (SF-268 CNS) greater than 100 µM. For the same compound, the TGI (SR leukemia) was greater than 100 µM, the TGI (UO-31 renal) was greater than 100 µM and the TGI (OVCAR-3 ovarian) was greater than 100 µM. It also gave a TGI (TK-10 renal) greater than 100 µM, a TGI (SNB-78 CNS) greater than 100 µM and a TGI (786-0 renal) greater than 100 µM. It also gave a TGI (RXF-631 renal) greater than 100 µM, a TGI (OVCAR-4 ovarian) greater than 100 µM and a TGI (MOLT-4 leukemia) greater than 100 µM. It also gave a TGI (SNB-75 CNS) greater than 100 µM, a TGI (UACC-257 melanoma) of 97.3 µM and a TGI (U251 CNS) greater than 100 µM. It also gave a TGI (M14 melanoma) greater than 100 µM, a TGI (SF-295 CNS) greater than 100 µM and a TGI (KM20L2 colon) greater than 100 µM. The TGI (KM12 colon) was greater than 100 µM, the TGI (NCI-H460 lung) was greater than 100 µM and the TGI (SK-MEL-28 melanoma) was greater than 100 µM. It also gave a TGI (NCI-H23 lung) greater than 100 µM, a TGI (A549 NSCLC) greater than 100 µM and a TGI (HOP-92 NSCLC) greater than 100 µM. For the same compound, the TGI (SNB-19 CNS) was greater than 100 µM, the TGI (LOX IMVI melanoma) was greater than 100 µM and the TGI (HOP-62 NSCLC) was greater than 100 µM. The TGI (OVCAR-8 ovarian) was greater than 100 µM, the TGI (RXF 393 renal) was 62.8 µM and the TGI (OVCAR-5 ovarian) was greater than 100 µM. The TGI (SW-620 colon) was greater than 100 µM, the TGI (HCT-15 colon) was greater than 100 µM and the TGI (DMS 114 small cell lung) was greater than 100 µM. It also gave a TGI (COLO 205 colon) greater than 100 µM, a TGI (SN12C renal) greater than 100 µM and a TGI (SF-539 CNS) greater than 100 µM. It also gave a TGI (K-562 leukemia) greater than 100 µM, a TGI (MALME-3M melanoma) greater than 100 µM and a TGI (SK-OV-3 ovarian) greater than 100 µM. The TGI (UACC-62 melanoma) was greater than 100 µM, the TGI (DMS 273 small cell lung) was greater than 100 µM and the TGI (NCI-H522 lung) was 82.5 µM. The TGI (M19-MEL melanoma) was 89.6 µM, the TGI (CAKI-1 renal) was greater than 100 µM and the TGI (IGROV1 ovarian) was greater than 100 µM. The TGI (NCI-H226 lung) was greater than 100 µM, the TGI (DLD-1 colon) was greater than 100 µM and the TGI (HCC-2998 colon) was greater than 100 µM. For the same compound, the TGI (LXFL 529 NSCLC) was greater than 100 µM, the TGI (CCRF-CEM leukemia) was greater than 100 µM and the TGI (HCT-116 colon) was greater than 100 µM. For the same compound, the TGI (SK-MEL-5 melanoma) was greater than 100 µM, the TGI (HT29 colon) was 76.3 µM and the TGI (RPMI-8226 leukemia) was greater than 100 µM.
